Laboratory results from patent publication US10933141B2, “Formulations with reduced degradation of polysorbate” (Genentech, Inc., priority 2015, dated 2021).

What was measured:
[1] = molecular target: T1, porcine pancreatic lipase (PPL) (Sus scrofa, UniProt P00591); assay: Kinetics of enzymatic PS20 degradation by PPL; assay type: biochemical; details: 15% sucrose; 0.02% (w/v) PS20; 15 μg/mL PPL, about 25° C., 180 hours
T1 construct: purchased Sigma Aldrich Inc. (St. Louis, Mo.)
T1 sequence (P00591 1-450): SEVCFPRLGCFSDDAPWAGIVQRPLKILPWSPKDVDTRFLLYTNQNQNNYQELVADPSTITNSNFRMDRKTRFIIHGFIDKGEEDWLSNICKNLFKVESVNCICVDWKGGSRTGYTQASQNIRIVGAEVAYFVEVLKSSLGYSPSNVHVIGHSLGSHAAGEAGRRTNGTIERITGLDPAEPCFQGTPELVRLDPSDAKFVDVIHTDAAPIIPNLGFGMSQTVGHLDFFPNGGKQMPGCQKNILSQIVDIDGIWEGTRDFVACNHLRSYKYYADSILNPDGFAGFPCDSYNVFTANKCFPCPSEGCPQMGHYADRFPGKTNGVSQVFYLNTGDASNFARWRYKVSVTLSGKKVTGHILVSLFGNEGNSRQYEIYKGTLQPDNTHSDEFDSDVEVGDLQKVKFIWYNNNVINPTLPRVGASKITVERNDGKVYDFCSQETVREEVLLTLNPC
Description: Polysorbate concentration was determined using reverse phase ultra-performance liquid chromatography using evaporative light scattering detection (RP-ELSD). Samples were analyzed using an Agilent 1100 series high performance liquid chromatography system (HPLC) fitted with a Waters Oasis MAX cartridge column (20×2.1 mm, 30 μm particle size). The HPLC system was set up with a switching valve directing column flow-through to either waste or a Varian 380-LC evaporative light scattering detector set to 100° C. The mobile phases consisted of 2% formic acid in water (Pump A) and 2% formic acid in isopropanol (Pump B). The pump gradient was isocratic at 10% pump B during equilibration, linear to 20% pump B for 1 minute, isocratic at 20% pump B for 2.4 minutes, linear to 100% pump B for 0.1 minutes, isocratic at 100% pump B for 1.1 minutes, linear to 10% pump B for 0.1 minutes, and finally isocratic at 10% pump B for 1.9 minutes. […] In order to quantitate the PS20 concentration, a standard curve was generated by injecting 20 μL of solutions containing between 0% w/v and 0.4% w/v PS20. For excipients which affected the migration time of PS20 through the column, PS20 standard curve solutions containing the relevant excipient were included in the analysis to facilitate accurate quantitation. […]

[2] = system: Rabbit Liver Esterase (RLE); assay: Enzymatic degradation of PS20 by RLE, PS20 by RP-ELSD; assay type: biochemical; details: 15% w/v HP-β-CD; 0.02% PS20, pH 5.5; 15 μg/mL RLE, 5 hours, room temperature
Description: (§1) Polysorbate concentration was determined using reverse phase ultra-performance liquid chromatography using evaporative light scattering detection (RP-ELSD). Samples were analyzed using an Agilent 1100 series high performance liquid chromatography system (HPLC) fitted with a Waters Oasis MAX cartridge column (20×2.1 mm, 30 μm particle size). The HPLC system was set up with a switching valve directing column flow-through to either waste or a Varian 380-LC evaporative light scattering detector set to 100° C. The mobile phases consisted of 2% formic acid in water (Pump A) and 2% formic acid in isopropanol (Pump B). […] In order to quantitate the PS20 concentration, a standard curve was generated by injecting 20 μL of solutions containing between 0% w/v and 0.4% w/v PS20. For excipients which affected the migration time of PS20 through the column, PS20 standard curve solutions containing the relevant excipient were included in the analysis to facilitate accurate quantitation.
(§2) The effect of 15% HP-β-CD on the enzymatic degradation of PS20 was measured. […]
(§3) PPL digestion was stopped by heat inactivation in an 85° C. water bath for 30 minutes. LPL and RLE digestion could not be stopped by heat inactivation, so the samples were analyzed immediately for PS20 content. […]

[3] = molecular target: T1, porcine pancreatic lipase (PPL); assay: Enzymatic degradation of PS80 by PPL (RP-ELSD, HIAC); assay type: biochemical
Description: (§4) Subvisible particles were measured using a HIAC 9703 particle counter equipped with an HRDL-150 detector and a 1 mL syringe. Performance of the instrument was verified with NIST-traceable 2 μm Polystyrene bead standards at 3000 counts/mL before each measurement session. The HIAC instrument was configured to a 10 mL/min flow rate, 0.1 mL tare volume, and 0.4 mL sample volume. The samples were analyzed using 4 runs of 0.4 mL sips, with the first run of each sample was discarded to prevent measurement error due to sample carryover. Results were reported as the average values for 1.4, 2, 5, 10, 15, and 25, 50 μm analysis filter sizes.
as §1, with “size).” for “size). The HPLC system was set up with a switching valve directing column flow-through to either waste or a Varian 380-LC evaporative light scattering detector set to 100° C. The mobile phases consisted of 2% formic acid in water (Pump A) and 2% formic acid in isopropanol (Pump B).”, “quantitation. […]” for “quantitation.”

Lipoprotein Lipase (LPL) = assay: Enzymatic degradation of PS20 by LPL, PS20 by RP-ELSD; assay type: biochemical, Burkholderia sp.; details: 15% w/v HP-β-CD; 0.02% PS20, pH 5.5; 70 μg/mL LPL, 5 hours, room temperature
Description: as §1, §2, §3

CALB, RLE, and LPL = assay: PS20 loss and subvisible particles after digestion, summary across CALB, LPL and RLE; assay type: biochemical; details: 15% (w/v) HP-β-CD vs 0%; ≥2, ≥5, ≥10, ≥25 micron; HIAC
Description: as §4
as §1, with “size).” for “size). The HPLC system was set up with a switching valve directing column flow-through to either waste or a Varian 380-LC evaporative light scattering detector set to 100° C. The mobile phases consisted of 2% formic acid in water (Pump A) and 2% formic acid in isopropanol (Pump B).”, “quantitation. […]” for “quantitation.”

Row | Compound | plateau of PS20 degradation curve [1] | Polysorbate 20 (Relative %) [2] | subvisible particulates (SVP/mL) after PPL degradation of PS80 ([3]; 15% (w/v) HP-β-CD vs 0%, ≥1.4 to ≥25 micron, HIAC) | decrease in PS80 ([3]; 15% (w/v) HP-β-CD, 0.02% (w/v) PS80, pH 5.5, 15 μg/mL PPL, 5 hours, room temperature) | Polysorbate 20 (Relative %) (Lipoprotein Lipase (LPL)) | subvisible particulates (SVP/mL) after enzymatic degradation (CALB, RLE, and LPL)
1 | OC[C@H]1O[C@@](CO)(O[C@H]2O[C@H](CO)[C@@H](O)[C@H](O)[C@H]2O)[C@@H](O)[C@@H]1O [sucrose, reference compound] | 44% | – | – | – | – | –
2 | 2-hydroxypropyl-β-cyclodextrin [HP-β-CD] | – | 62.7% | fewer SVP/mL | approximately 4% | 77.5% | fewer SVP/mL
